Source: patent publication US11634394B2, “Process for preparation of fungicidally active triazole compounds” (UPL LTD, priority 2018, dated 2023)

Experiment: Particle size measurement by Malvern Particle Size Analyzer (Mastersizer-Hydro 2000 S M)
Assay type: physicochemical
Settings: 1 g in 100 ml dispersant medium; prothioconazole prepared according to Example 3
Experimental: Particle Size Measurement by Malvern Particle Size Analyzer
Sample preparation and method of analysis: 1 g of Prothioconazole was taken in 100 ml dispersant medium. The content was mixed well and analyzed in Malvern Mastersizer-Hydro 2000 S M.

OC(Cc1ccccc1Cl)(Cn1ncnc1S)C1(Cl)CC1 (centres unmarked) [Prothioconazole, 2-(1-chloro-cyclopropyl)-1-(2-chlorophenyl)-3-(5-mercapto-1,2,4-triazol-1-yl)-propan-2-ol]
d (0.5) particle size (volume distribution): 202.967 um | d (0.9) particle size (volume distribution): 367.723 um
